US5051403A (priority 1989, dated 1991)

Key:
[1] = test system: voltage-gated calcium channels, N1E115 mouse neuroblastoma cells; type: cell-based
[2] = test system: OCT receptor sites, NG-108 cells; type: binding, Rat glioma x mouse neuroblastoma

| Structure (SMILES) | ED50 (50% inhibition of calcium current) [1] | concentration of specific binding sites [2] |
| --- | --- | --- |
| C[C@@H](O)[C@@H]1NC(=O)[C@H](Cc2ccc(O)cc2)NC(=O)[C@@H]2C[C@@H](O)CN2C(=O)[C@H](CC(N)=O)NC(=O)[C@@H]2CSSC[C@@H]3NC(=O)[C@H](CO)NC(=O)[C@H](CO)NC(=O)CNC(=O)[C@@H]4C[C@@H](O)CN4C(=O)[C@H](CO)NC(=O)[C@H](CCCCN)NC(=O)[C@@H](N)CSSC[C@H](NC(=O)[C@H](CSSC[C@@H](C(=O)N[C@@H](Cc4ccc(O)cc4)C(N)=O)NC(=O)[C@H](CCCNC(=N)N)NC(=O)[C@H](CCCCN)NC1=O)NC(=O)[C@H](CC(N)=O)NC(=O)[C@H](Cc1ccc(O)cc1)NC(=O)[C@H](CO)NC(=O)[C@H]([C@@H](C)O)NC(=O)[C@@H]1C[C@@H](O)CN1C(=O)[C@H](CO)NC3=O)C(=O)N[C@@H](CCCNC(=N)N)C(=O)N[C@@H](CO)C(=O)N2 [GVIA, HCysLysSer4HypGlySerSerCysSer4HypThrSerTyrAsnCysCysArgSerCysAsn4HypTyrLysArgCysTyr-NH2] | 12 nM |  |
| CSCC[C@@H]1NC(=O)[C@H](CC(C)C)NC(=O)[C@H](CCCNC(=N)N)NC(=O)[C@H](CO)NC(=O)[C@@H]2CSSC[C@@H]3NC(=O)[C@H](CO)NC(=O)CNC(=O)[C@H]([C@@H](C)O)NC(=O)[C@H](CSSC[C@H](N)C(=O)N[C@@H](CCCCN)C(=O)NCC(=O)N[C@@H](CCCCN)C(=O)NCC(=O)N[C@@H](C)C(=O)N[C@@H](CCCCN)C(=O)N2)NC(=O)[C@H](CSSC[C@@H](C(N)=O)NC(=O)[C@H](CCCCN)NC(=O)CNC(=O)[C@H](CO)NC(=O)[C@H](CCCNC(=N)N)NC3=O)NC(=O)[C@H](CC(=O)O)NC(=O)[C@H](Cc2ccc(O)cc2)NC1=O [MVIIA] |  | 45.6 |
